The numbers were not newly measured in US20220000797A1, “CLEAR PROPOFOL INJECTION AND PREPARATION METHOD THEREFOR” ((BIKA BIOTECHNOLOGY (GUANGZHOU) CO., LTD), priority 2018, published 2022), which cites them from elsewhere.

Like-named read-outs stand apart in the source and are kept apart here.

Turning to `O=C([O-])O.[Na+]` [sodium bicarbonate], the injection pain result (final concentration of sodium bicarbonate approaches 1.4%) was “can reduce injection pain” and the injection pain result (low concentration of sodium bicarbonate (0.25%)) is listed as “cannot reduce injection pain”.
